From article PMC12193096 (International Journal of Molecular Sciences, 2025) come the findings set out here.

The target of one assay is T1, FGR (Homo sapiens, UniProt P09769).
T1 construct: EGFP-fusion of wild-type FGR
Nature of the assay: live-cell confocal co-localization (HaloTag recruitment to endosome/F-actin) in HeLa cells. The format is cell-based.

A further assay deals with T2, ABL1 (Homo sapiens, UniProt P00519).
T2 construct: recombinant active kinase ABL1
Nature of the assay: Kinase-Glo Plus luminescence kinase assay; also live-cell co-localization competed by excess dasatinib. The format is biochemical.

The next assay has as its target T3, SRC (Homo sapiens, UniProt P12931).
T3 construct: full-length SRC (EGFP-SRC)
Description: Western blot of pY416 autophosphorylation of EGFP-SRC in HeLa cells; live-cell co-localization imaging. Type of assay: cell-based.

A further assay deals with T4, HCK (Homo sapiens, UniProt P08631).
T4 construct: EGFP-fusion of wild-type HCK
Description: live-cell confocal co-localization (HaloTag recruitment to endosome/F-actin) in HeLa cells. Type of assay: cell-based.

Another assay deals with T5, LYN (Homo sapiens, UniProt P07948).
T5 construct: EGFP-fusion of wild-type LYN
Described as above. The format is cell-based.

In another assay the target is T6, YES1 (Homo sapiens, UniProt P07947).
T6 construct: EGFP-fusion of wild-type YES1
The description is as above. Type of assay: cell-based.

For the next assay, the target named is T7, BTK (Homo sapiens, UniProt Q06187).
T7 construct: EGFP-fusion of wild-type BTK
The assay is described as above. Type of assay: cell-based.

The target in a further assay is T8, CSK (Homo sapiens, UniProt P41240).
T8 construct: EGFP-fusion of wild-type CSK
The description is as above. Type of assay: cell-based. The text has this: live-cell confocal co-localization (HaloTag recruitment to endosome/F-actin) in HeLa cells on CSK | […]

Each structure is given as a SMILES string.

T5 sequence (P07948 2-491 isoform P07948-2): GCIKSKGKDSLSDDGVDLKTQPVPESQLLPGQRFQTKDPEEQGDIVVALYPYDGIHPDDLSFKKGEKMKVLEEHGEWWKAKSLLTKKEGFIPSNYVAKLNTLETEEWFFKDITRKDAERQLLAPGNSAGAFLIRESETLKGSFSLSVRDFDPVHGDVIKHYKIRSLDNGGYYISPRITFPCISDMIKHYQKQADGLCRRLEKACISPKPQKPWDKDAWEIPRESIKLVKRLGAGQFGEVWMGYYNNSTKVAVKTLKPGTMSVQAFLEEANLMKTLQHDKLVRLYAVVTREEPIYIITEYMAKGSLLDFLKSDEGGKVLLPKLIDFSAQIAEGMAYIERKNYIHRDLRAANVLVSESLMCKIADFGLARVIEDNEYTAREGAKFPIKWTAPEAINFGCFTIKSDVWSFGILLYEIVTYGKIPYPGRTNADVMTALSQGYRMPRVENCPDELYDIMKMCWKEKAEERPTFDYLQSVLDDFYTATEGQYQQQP
T2 sequence (P00519 whole entry): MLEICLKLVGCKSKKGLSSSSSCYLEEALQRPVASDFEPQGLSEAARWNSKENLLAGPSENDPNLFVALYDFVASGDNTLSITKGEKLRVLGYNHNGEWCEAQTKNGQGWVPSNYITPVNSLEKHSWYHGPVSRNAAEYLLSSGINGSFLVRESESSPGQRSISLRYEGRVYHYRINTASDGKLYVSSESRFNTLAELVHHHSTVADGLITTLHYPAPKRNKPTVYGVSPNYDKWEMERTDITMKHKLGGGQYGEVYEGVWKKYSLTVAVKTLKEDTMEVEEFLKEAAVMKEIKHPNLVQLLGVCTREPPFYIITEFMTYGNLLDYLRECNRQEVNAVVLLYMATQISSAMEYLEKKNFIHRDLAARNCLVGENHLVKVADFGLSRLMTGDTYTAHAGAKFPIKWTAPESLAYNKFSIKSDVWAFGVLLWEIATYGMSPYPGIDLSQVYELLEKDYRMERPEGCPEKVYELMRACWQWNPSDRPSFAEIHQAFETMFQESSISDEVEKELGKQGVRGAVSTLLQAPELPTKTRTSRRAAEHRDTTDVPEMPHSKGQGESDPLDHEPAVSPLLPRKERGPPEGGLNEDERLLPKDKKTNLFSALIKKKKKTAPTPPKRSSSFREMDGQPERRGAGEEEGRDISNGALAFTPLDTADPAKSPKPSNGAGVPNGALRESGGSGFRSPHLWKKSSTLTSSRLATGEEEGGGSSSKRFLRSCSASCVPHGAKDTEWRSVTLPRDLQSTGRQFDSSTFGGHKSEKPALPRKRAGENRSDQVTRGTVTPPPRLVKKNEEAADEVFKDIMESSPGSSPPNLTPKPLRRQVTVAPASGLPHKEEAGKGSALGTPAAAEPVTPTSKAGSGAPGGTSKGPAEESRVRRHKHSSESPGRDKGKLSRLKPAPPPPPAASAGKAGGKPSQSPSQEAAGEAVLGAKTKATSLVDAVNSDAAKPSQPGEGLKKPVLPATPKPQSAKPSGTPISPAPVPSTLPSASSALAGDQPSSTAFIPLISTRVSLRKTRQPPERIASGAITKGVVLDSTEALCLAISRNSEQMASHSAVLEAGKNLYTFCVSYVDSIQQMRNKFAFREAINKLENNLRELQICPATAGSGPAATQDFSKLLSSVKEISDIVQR
T3 sequence (P12931 2-536): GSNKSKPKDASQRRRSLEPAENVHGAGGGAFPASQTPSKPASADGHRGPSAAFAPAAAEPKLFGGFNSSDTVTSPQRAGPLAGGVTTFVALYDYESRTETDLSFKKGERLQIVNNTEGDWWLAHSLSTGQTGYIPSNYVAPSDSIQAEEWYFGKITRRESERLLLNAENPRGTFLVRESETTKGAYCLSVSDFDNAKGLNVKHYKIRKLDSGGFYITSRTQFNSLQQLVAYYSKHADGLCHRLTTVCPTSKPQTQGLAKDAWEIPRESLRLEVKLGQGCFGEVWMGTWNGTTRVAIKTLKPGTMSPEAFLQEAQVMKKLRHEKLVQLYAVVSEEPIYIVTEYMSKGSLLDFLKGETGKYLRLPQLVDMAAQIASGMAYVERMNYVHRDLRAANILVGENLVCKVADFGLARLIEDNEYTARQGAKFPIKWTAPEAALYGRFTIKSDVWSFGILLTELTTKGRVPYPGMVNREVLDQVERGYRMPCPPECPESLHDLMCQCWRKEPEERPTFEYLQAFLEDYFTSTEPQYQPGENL
T8 sequence (P41240 whole entry, the tested form may be a part): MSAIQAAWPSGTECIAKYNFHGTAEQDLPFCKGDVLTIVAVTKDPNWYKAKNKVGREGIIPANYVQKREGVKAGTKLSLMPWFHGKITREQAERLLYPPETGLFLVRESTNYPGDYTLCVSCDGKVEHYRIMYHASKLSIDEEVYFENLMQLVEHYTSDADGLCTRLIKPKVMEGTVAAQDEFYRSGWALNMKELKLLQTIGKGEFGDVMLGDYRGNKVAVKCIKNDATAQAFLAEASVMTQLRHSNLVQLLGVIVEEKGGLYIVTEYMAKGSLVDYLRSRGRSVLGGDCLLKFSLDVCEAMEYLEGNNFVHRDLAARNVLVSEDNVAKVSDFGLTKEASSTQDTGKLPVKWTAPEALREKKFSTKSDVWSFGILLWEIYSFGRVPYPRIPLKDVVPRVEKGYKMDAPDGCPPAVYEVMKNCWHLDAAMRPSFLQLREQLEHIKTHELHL
T6 sequence (P07947 2-543): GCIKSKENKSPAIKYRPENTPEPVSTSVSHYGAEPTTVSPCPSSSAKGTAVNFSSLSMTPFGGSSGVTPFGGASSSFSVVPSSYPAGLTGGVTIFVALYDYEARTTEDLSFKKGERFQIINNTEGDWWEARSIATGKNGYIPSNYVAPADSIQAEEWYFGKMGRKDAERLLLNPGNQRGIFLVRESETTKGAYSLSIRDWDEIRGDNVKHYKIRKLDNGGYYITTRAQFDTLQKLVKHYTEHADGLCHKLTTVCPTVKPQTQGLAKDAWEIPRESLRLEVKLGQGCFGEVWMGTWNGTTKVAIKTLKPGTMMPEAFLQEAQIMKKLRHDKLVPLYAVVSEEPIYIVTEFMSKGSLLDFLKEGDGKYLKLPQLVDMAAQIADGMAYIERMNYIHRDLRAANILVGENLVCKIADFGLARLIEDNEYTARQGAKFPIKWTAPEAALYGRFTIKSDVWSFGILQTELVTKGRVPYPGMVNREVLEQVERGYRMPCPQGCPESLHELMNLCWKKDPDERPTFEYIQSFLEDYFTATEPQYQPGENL
T1 sequence (P09769 2-529): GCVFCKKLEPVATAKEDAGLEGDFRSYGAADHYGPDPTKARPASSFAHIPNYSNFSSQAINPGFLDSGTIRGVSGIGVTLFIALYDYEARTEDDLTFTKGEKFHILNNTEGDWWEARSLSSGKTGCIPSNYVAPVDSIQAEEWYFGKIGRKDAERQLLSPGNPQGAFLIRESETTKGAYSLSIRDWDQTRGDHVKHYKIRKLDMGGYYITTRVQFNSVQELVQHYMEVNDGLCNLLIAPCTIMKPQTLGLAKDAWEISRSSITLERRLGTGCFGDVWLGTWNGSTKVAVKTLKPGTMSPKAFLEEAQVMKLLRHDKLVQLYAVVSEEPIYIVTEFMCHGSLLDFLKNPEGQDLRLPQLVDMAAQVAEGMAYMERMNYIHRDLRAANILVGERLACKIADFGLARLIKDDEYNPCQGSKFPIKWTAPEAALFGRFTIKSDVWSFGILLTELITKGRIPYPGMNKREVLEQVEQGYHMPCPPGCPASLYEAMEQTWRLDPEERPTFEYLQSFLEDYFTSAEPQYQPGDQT
T7 sequence (Q06187 whole entry, the tested form may be a part): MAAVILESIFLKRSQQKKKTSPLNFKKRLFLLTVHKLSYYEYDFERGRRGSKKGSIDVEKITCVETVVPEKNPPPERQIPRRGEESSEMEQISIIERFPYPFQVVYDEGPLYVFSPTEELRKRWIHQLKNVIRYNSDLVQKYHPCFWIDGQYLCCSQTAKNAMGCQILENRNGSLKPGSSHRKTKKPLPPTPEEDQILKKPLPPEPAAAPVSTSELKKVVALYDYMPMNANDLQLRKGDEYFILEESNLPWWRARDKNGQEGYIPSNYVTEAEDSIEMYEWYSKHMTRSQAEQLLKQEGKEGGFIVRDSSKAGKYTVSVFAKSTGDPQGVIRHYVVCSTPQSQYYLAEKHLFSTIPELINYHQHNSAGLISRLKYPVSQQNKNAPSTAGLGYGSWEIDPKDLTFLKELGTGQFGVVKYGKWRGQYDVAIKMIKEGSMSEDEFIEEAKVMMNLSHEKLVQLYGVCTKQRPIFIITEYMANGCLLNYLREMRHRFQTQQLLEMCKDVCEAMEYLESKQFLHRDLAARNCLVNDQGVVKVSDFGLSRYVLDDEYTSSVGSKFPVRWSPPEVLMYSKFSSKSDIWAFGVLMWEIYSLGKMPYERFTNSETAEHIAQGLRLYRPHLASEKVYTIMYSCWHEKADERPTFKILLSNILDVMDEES
T4 sequence (P08631 2-526): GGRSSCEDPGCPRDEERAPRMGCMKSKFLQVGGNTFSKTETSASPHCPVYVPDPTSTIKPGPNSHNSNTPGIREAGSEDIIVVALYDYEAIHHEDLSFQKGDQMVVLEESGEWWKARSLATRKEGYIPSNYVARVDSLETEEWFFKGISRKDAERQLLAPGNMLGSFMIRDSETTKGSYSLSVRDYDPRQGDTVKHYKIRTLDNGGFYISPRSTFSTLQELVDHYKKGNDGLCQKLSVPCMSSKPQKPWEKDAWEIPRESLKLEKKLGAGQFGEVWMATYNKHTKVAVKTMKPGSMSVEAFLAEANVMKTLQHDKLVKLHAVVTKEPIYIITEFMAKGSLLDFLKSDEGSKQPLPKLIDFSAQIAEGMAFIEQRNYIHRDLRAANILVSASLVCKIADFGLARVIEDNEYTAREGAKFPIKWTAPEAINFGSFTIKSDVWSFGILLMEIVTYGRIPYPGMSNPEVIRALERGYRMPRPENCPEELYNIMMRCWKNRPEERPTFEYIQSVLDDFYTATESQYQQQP

Take `Cc1nc(Nc2ncc(C(=O)Nc3c(C)cccc3Cl)s2)cc(N2CCN(CCNC(=O)CCC(=O)NCCOCCOCCCCCCCl)CC2)n1` [dasatinib−HT ligand]: the “live-cell confocal co-localization (HaloTag recruitment to endosome/F-actin) in” value on FGR is “the GFP-fusion kinase co-localized with the intracellular compartments”; on HCK, “the GFP-fusion kinase co-localized with the intracellular compartments”; on LYN it was “the GFP-fusion kinase co-localized with the intracellular compartments”; on YES1 it was “the GFP-fusion kinase co-localized with the intracellular compartments”; on BTK it was “the GFP-fusion kinase co-localized with the intracellular compartments”; at CSK it was “clearly showed binding events between dasatinib and its target kinases (ABL1, SRC, CSK, etc.) at specific subcellular structures”. Besides, at ABL1, the IC50 was 153 nM. In addition, the “Western blot of pY416 autophosphorylation of EGFP-SRC in HeLa cells; live-cell c” value at SRC was “the levels of active, phosphorylated SRC significantly decreased compared with those in vehicle-treated HeLa cells”.
